Source: patent publication US11267811B2, “Small molecule inhibitors of galectin-3” (BRISTOL-MYERS SQUIBB COMPANY, priority 2017, dated 2022)

Target: His-tagged recombinant human Gal-3 (hGal-3) (Homo sapiens (Human), UniProt P17931)
Experiment: Gal-3 HTRF assay (His-tagged hGal-3 binding to B-ASF);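 further: compounds preincubated 30 min with hGal-3, then 1 h with B-ASF, detection via terbium anti-His antibody and streptavidin d2. Control with B-ASF counts as full signal, omitting B-ASF as background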
Conditions: read-out: hGal IC50

His-tagged recombinant human Gal-3 (hGal-3), sequence (P17931 whole entry): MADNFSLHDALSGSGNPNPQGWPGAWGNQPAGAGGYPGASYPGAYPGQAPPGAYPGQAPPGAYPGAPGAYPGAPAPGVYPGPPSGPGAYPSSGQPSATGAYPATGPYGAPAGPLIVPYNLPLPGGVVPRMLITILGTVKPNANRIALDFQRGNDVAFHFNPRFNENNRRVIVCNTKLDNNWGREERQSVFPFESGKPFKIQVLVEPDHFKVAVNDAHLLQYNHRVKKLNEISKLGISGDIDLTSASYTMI

Row | IC50 [nM] | SMILES
1 | 140 | Cc1nc([C@@H]2O[C@H](CO)[C@H](O)[C@H](n3cc(-c4ccc(Cl)c(F)c4F)nn3)[C@H]2O)n(-c2cc(Cl)ccc2C2CC2)n1 [Example A44]
2 | 33 | Cc1nc([C@@H]2O[C@H](CO)[C@H](O)[C@H](n3cc(-c4cc(F)c(Cl)c(F)c4)nn3)[C@H]2O)n(-c2cc(Cl)c(F)cc2Cl)n1 [Example A46]
3 | 54 | Cc1nc([C@@H]2O[C@H](CO)[C@H](O)[C@H](n3cc(-c4ccc(Cl)c(F)c4)nn3)[C@H]2O)n(-c2cc(Cl)c(F)cc2Cl)n1 [Example A47]
4 | 47 | Cc1nc([C@@H]2O[C@H](CO)[C@H](O)[C@H](n3cc(-c4ccc(Cl)c(F)c4)nn3)[C@H]2O)n(-c2cc(Cl)cc(F)c2Cl)n1 [Example A48]
5 | 46 | Cc1nc([C@@H]2O[C@H](CO)[C@H](O)[C@H](n3cc(-c4cc(F)c(Cl)c(F)c4)nn3)[C@H]2O)n(-c2cc(Cl)cc(F)c2Cl)n1 [Example A49]
6 | 52 | Cc1nc([C@@H]2O[C@H](CO)[C@H](O)[C@H](n3cc(-c4ccc(F)c(Cl)c4)nn3)[C@H]2O)n(-c2cc(Cl)ccc2C(F)(F)F)n1 [Example A50]
7 | 52 | Cc1nc([C@@H]2O[C@H](CO)[C@H](O)[C@H](n3cc(-c4ccc(Cl)cc4F)nn3)[C@H]2O)n(-c2cc(Cl)ccc2C(F)(F)F)n1 [Example A52]
8 | 58 | Cc1nc([C@@H]2O[C@H](CO)[C@H](O)[C@H](n3cc(-c4cc(F)c(Cl)c(F)c4)nn3)[C@H]2O)n(-c2cc(Cl)c(Cl)cc2Cl)n1 [Example A53]
9 | 48 | Cc1nc([C@@H]2O[C@H](CO)[C@H](O)[C@H](n3cc(-c4cc(F)c(Cl)c(Cl)c4)nn3)[C@H]2O)n(-c2cc(Cl)ccc2Cl)n1 [Example A54]
10 | 20 | Cc1nc([C@@H]2O[C@H](CO)[C@H](O)[C@H](n3cc(-c4cc(F)c(Cl)c(Cl)c4)nn3)[C@H]2O)n(-c2cc(Cl)ccc2C(F)(F)F)n1 [Example A55]
11 | 158 | Cc1nc([C@@H]2O[C@H](CO)[C@H](O)[C@H](n3cc(-c4ncc(Cl)cc4F)nn3)[C@H]2O)n(-c2cc(Cl)ccc2C(F)(F)F)n1 [Example A59]
12 | 36 | Cc1nc([C@@H]2O[C@H](CO)[C@H](O)[C@H](n3cc(-c4cc(F)c(Cl)c(F)c4)nn3)[C@H]2O)n(-c2cc(Cl)ccc2C(F)F)n1 [Example A60]
13 | 49 | Cc1nc([C@@H]2O[C@H](CO)[C@H](O)[C@H](n3cc(-c4ccc(Br)c(F)c4)nn3)[C@H]2O)n(-c2cc(Cl)ccc2C(F)F)n1 [Example A61]
14 | 172 | Cc1nc([C@@H]2O[C@H](CO)[C@H](O)[C@H](n3cc(-c4ncc(Cl)cc4Cl)nn3)[C@H]2O)n(-c2cc(Cl)ccc2C(F)(F)F)n1 [Example A62]
15 | 291 | Cc1nc([C@@H]2O[C@H](CO)[C@H](O)[C@H](n3cc(-c4ccc5ncsc5c4)nn3)[C@H]2O)n(-c2cc(Cl)ccc2C(F)(F)F)n1 [Example A63]
16 | 42 | COc1ccc(C(F)(F)F)c(-n2nc(C)nc2[C@@H]2O[C@H](CO)[C@H](O)[C@H](n3cc(-c4cc(F)c(Cl)c(F)c4)nn3)[C@H]2O)c1 [Example A64]
17 | 87 | Cc1nc([C@@H]2O[C@H](CO)[C@H](O)[C@H](n3cc(-c4ccc5scnc5c4)nn3)[C@H]2O)n(-c2cc(Cl)ccc2C(F)(F)F)n1 [Example A65]
18 | 208 | Cc1nc([C@@H]2O[C@H](CO)[C@H](O)[C@H](n3cc(-c4ccc5nccnc5c4)nn3)[C@H]2O)n(-c2cc(Cl)ccc2C(F)(F)F)n1 [Example A66]
19 | 39 | Cc1nc([C@@H]2O[C@H](CO)[C@H](O)[C@H](n3cc(-c4cc(F)c(F)c(F)c4)nn3)[C@H]2O)n(-c2cc(Cl)c(F)cc2Cl)n1 [Example A67]
20 | 154 | Cc1nc([C@@H]2O[C@H](CO)[C@H](O)[C@H](n3cc(-c4cc(F)c5ncccc5c4)nn3)[C@H]2O)n(-c2cc(Cl)ccc2C(F)(F)F)n1 [Example A68]
21 | 56 | Cc1nc([C@@H]2O[C@H](CO)[C@H](O)[C@H](n3cc(-c4c(F)cc(Cl)cc4F)nn3)[C@H]2O)n(-c2cc(Cl)ccc2C(F)(F)F)n1 [Example A69]
22 | 15 | Cc1nc([C@@H]2O[C@H](CO)[C@H](O)[C@H](n3cc(-c4cc(F)c5ccccc5c4)nn3)[C@H]2O)n(-c2ccc3ncsc3c2)n1 [Example A70]
23 | 49 | Cc1nc([C@@H]2O[C@H](CO)[C@H](O)[C@H](n3cc(-c4ccc(Br)c(F)c4)nn3)[C@H]2O)n(-c2cc(Cl)cnc2C(F)(F)F)n1 [Example A71]
24 | 11 | Cc1nc([C@@H]2O[C@H](CO)[C@H](O)[C@H](n3cc(-c4ccc(Cl)c(F)c4F)nn3)[C@H]2O)n(-c2cc(Cl)ccc2Cl)n1 [Example A72]
25 | 10 | Cc1nc([C@@H]2O[C@H](CO)[C@H](O)[C@H](n3cc(-c4ccc(Cl)c(F)c4F)nn3)[C@H]2O)n(-c2cc(Cl)ccc2Br)n1 [Example A73]
26 | 340 | CO[C@@H]1[C@@H](n2cc(-c3ccc(Br)c(F)c3)nn2)[C@@H](O)[C@@H](CO)O[C@H]1c1nc(C)nn1-c1ccc2ncsc2c1 [Example A75]
27 | 40 | COc1cc(-c2cn([C@H]3[C@@H](O)[C@@H](CO)O[C@@H](c4nc(C)nn4-c4cc(Cl)ccc4C(F)(F)F)[C@@H]3O)nn2)ccc1Cl [Example A79]
